Assay results reported in patent publication US4250321A, “1-Descarboxy-1-ketoester(ketoacid)-protaglandins” (American Cyanamid Company, priority 1979, dated 1981).
Like-named read-outs stand apart in the source and are kept apart here.

Tests used:
Assay type in all cases: in vivo
[1] = system: histamine-stimulated gastric acid secretion; assay: Gastric acid secretion in the dog, gastric fistula; conditions: 5 μg/Kg by stomach tube, i.v. histamine 40 μg/kg/hr
Protocol: (§1) Experiments are carried out on six fasted female mongrel dogs, 3-7 years of age. Each had been provided with either a gastric fistula (4 dogs) or a Heidenhain pouch (2 dogs) using standard surgical techniques. Briefly, spool shaped cannulae of stainless steel (gastric fistual preparation) or titanium (Heidenhain pouch preparation) were inserted into narrow slits in the most dependent portion of the vertical stomach and retained in place by a purse-string suture. In the Heidenhain pouch preparation the slit made in a denervated sleeve of stomach which was isolated along the greater curvature. The cannulae were exteriorized through a trocar wound in the abdomen just left of midline and, as the purse string was tightened about the cannulae, the edges of the wound were inverted.
The drug is administered at zero time through the smaller lumen of a double lumen Salen Sump Tube which has been placed transorally into the animal's stomach. The length is adjusted to reach from the mouth just to the cannula site. Five ml of saline are then flushed through the smaller lumen, followed by 5 ml of air. Immediately following 20-25 ml of saline are placed into the stomach through the larger lumen of the double lumen tube and the tube withdrawn.
Thirty minutes after the drug is administered the gastric annula is opened, irrigated rapidly with 25-30 ml of saline 4 separate times and allowed to drain for 15 minutes.
At the end of the drainage period, the intravenous histamine infusion is started ([…]) and the first 15 minutes collection period of gastric secretions via the cannula is begun. The collection is changed every 15 minutes. The volume of each 15 minute sample is measured and an aliquot titrated to pH 7 with 0.1 N NaOH using a Radiometer automatic titrator.
^1 Secretion is stimulated with intravenous histamine, 40 μg/kg/hr
g/Kg) 45 minutes after administration of compound (5μg/Kg)? or vehicle
(control) by stomach tube. Secretions are collected from fistula annula.

[2] = system: bronchospasms elicited by intravenous injections of 5-hydroxytryptamine, histamine or acetylcholine; assay: Bronchodilator activity in guinea pigs by the Konzett procedure; conditions: Cavia porcellus, guinea pig, three logarithmic cumulative intravenous doses
Protocol: The compounds of this invention are useful as bronchodilators for the treatment of asthma and chronic bronchitis. Bronchodilator activity is determined in guinea pigs against bronchospasms elicited by intravenous injections of 5-hydroxytryptamine, histamine or acetylcholine by the Konzett procedure. [See J. Lulling, P. Lievens, F. El Sayed and J. Pringnot, Arzneimittel-Forschung, 18, 955 (1968).].
In Table which follows bronchodilator activity for representative compounds of this invention against one or more of three spasmogenic agents is expressed as an ED50 determined from the results obtained with three logarithmic cummulative intravenous doses. In this assay, these compounds of this invention provide an effect of longer duration than does natural 1-PGE1 or 1-PGE2.

[3] = system: histamine-stimulated gastric acid secretion; assay: Gastric acid secretion in the dog, Heidenhain pouch; conditions: 5 μg/kg by stomach tube, i.v. histamine 40 μg/kg/hr
Protocol: as §1
The intravenous histamine infusion ([…]) is started. At the same time, the first gastric secretion collection is begun. these secretions are collected by gravity drainage through the Heidenhain pouch cannula. Separate gastric samples are collected every fifteen minutes. When the volumes of two successive samples are within 10% of each other (usually occuring by the end of the fourth period--after one hour of histamine infusion) the drug is given to the animal (time 0). The latter of the two samples is considered to be the control for that particular experiment. The drug is administered through the smaller lumen of a double lumen Salem Sump Tube which has been cut to a length equal to the mouth to stomach distance of the dog. Following administration of the drug, the narrow lumen is flushed first with […], followed by 5 ml of air. Twenty-five to 30 ml of saline is then introduced into the stomach through the larger lumen and the tube withdrawn. (Note: Samples of gastric juice are taken from the pouch, drug is administered into the main stomach). Aliquots of each 15 minute gastric sample are titrated to pH 7 with 0.1 N NaOH using a Radiometer automatic titrator.
^2 Secretion is stimulated with intravenous histamine, 40 μg/kg/hr
and samples are collected through the pouch cannula at 15 minute
intervals. When the volume of two successive samples are within 10% of
each other, compound is administered (5 μg/kg) by stomach tube. The en
of the latter two periods is considered as 0 time (control).

[4] = bronchospasm by 5-hydroxytryptamine, read-out: ED50 5HT
[5] = bronchospasm by acetylcholine, read-out: ED50 ACH
[6] = bronchospasm by histamine, read-out: ED50 HIST.

With `CCCCC(C)(O)C/C=C/[C@H]1[C@H](O)CC(=O)[C@@H]1C/C=C\CCCC(=O)C(=O)OCC` (relative stereo) [dl-1,9-Dioxo-1-carbethoxy-11α,16-dihydroxy-16-methyl-5-cis-13-trans-prostadiene] the “% INHIBITION ACID SECRETION, 45-60 minutes after compound” value [1] was 96%, the “% INHIBITION ACID SECRETION, 60-75 minutes after compound” value [1] was 62% and the “% INHIBITION ACID SECRETION, 75-90 minutes after compound” value [1] was 59%. The “% INHIBITION ACID SECRETION, 90-105 minutes after compound” value [1] was 56%, the “% INHIBITION ACID SECRETION, 105-120 minutes after compound” value [1] was 47% and the ED50 [2, 4] was 9.51 µg/kg. The ED50 [2, 5] was 5.92 µg/kg and the ED50 [2, 6] was 9.31 µg/kg.

With `C=CC(O)(C/C=C/[C@H]1[C@H](O)CC(=O)[C@@H]1C/C=C\CCCC(=O)C(=O)OCC)CCCC` (relative stereo) [dl-1,9-Dioxo-1-carbethoxy-11α,16-dihydroxy-16-vinyl-5-cis-13-trans-prostadiene] the ED50 [2, 4] was 0.665 µg/kg, the ED50 [2, 5] was 3.41 µg/kg and the ED50 [2, 6] was 2.26 µg/kg.

In the case of `CCCCC(C)(O)C/C=C/[C@H]1[C@H](O)CC(=O)[C@@H]1CCCCCCC(=O)C(=O)OCC` (relative stereo) [dl-1,9-dioxo-1-carbethoxy-11,16-dihydroxy-16-methyl-13-trans-prostene], the “% INHIBITION ACID SECRETION, 0-15 minutes after compound” value ([3]; 0-15 min) is reported as 20%, the “% INHIBITION ACID SECRETION, 15-30 minutes after compound” value ([3]; 15-30 min) is reported as 28% and the “% INHIBITION ACID SECRETION, 30-45 minutes after compound” value ([3]; 30-45 min) is reported as 34%. For the same molecule, the “% INHIBITION ACID SECRETION, 45-60 minutes after compound” value ([3]; 45-60 min) was 21%, the “% INHIBITION ACID SECRETION, 60-75 minutes after compound” value ([3]; 60-75 min) was 12% and the “% INHIBITION ACID SECRETION, 45-60 minutes after compound” value [1] was 97%. For the same molecule, the “% INHIBITION ACID SECRETION, 60-75 minutes after compound” value [1] was 91%, the “% INHIBITION ACID SECRETION, 75-90 minutes after compound” value [1] was 76% and the “% INHIBITION ACID SECRETION, 90-105 minutes after compound” value [1] was 72%. For the same molecule, the “% INHIBITION ACID SECRETION, 105-120 minutes after compound” value [1] was 56%.

With `CCCCCC(C)(O)/C=C/[C@H]1[C@H](O)CC(=O)[C@@H]1CCCCCCC(=O)C(=O)OCC` (relative stereo) [dl-1,9-dioxo-1-carbethoxy-11α,15-dihydroxy-15-methyl-13-trans-prostene] the ED50 [2, 4] was 4.22 µg/kg and the ED50 [2, 6] was 6.05 µg/kg.
